According to US20170354148A1, “SAFENED HERBICIDAL COMPOSITIONS CONTAINING HALAUXIFEN AND METHODS OF USE THEREOF IN BRASSICA SPECIES” (Dow AgroSciences LLC, priority 2016, published 2017):

How the values were obtained:
[1] = system: turnip or Polish canola (Brassica rapa, BRSRR); assay: Example 5 greenhouse trials, postemergence visual injury; conditions: for % Visual Injury Obs / Visual Injury Obs: BRSRR
[2] = system: kale/Chinese kale (Brassica alboglabra, BRSAG); assay: as above; conditions: for % Visual Injury Obs / Visual Injury Obs: BRSAG
[3] = system: Nexera™ canola (Brassica napus, BRSNN-NEX); assay: as above; conditions: for % Visual Injury Obs / Visual Injury Obs: BRSNN-NEX
[4] = system: winter oilseed rape (Brassica napus, BRSNW); assay: Example 4 field trials (Europe), postemergence crop safety, visual phytotoxicity; conditions: for Mean % Visual Injury / Mean % Visual Deformation: alone or mixed
[5] = system: rutabaga (Brassica napus var. napobrassica, BRSNA); assay: Example 5 greenhouse trials, postemergence visual injury; conditions: for % Visual Injury Obs / Visual Injury Obs: BRSNA
[6] = system: Aparima Gold swede (Brassica sp., BRSSS); assay: Example 2 field trials (Canterbury, New Zealand), postemergence crop safety, visual phytotoxicity
[7] = system: Aparima Gold swede (Brassica sp., BRSSS); assay: Example 1 pot trials, postemergence crop safety, visual phytotoxicity
[8] = 6DAA1, halauxifen-methyl 5, clopyralid-olamine 120 g ae/ha
[9] = 7DAA1, halauxifen-methyl 5, clopyralid-olamine 120 g ae/ha
[10] = 19DAA1, halauxifen-methyl 5, clopyralid-olamine 120 g ae/ha
[11] = Trial 1, 27DAA1, halauxifen-methyl 5, clopyralid-olamine 120 g ae/ha
[12] = Trial 2, 6DAA1, halauxifen-methyl 5, clopyralid-olamine 120 g ae/ha
[13] = Trial 2, 7DAA1, halauxifen-methyl 5, clopyralid-olamine 120 g ae/ha
[14] = halauxifen-methyl alone 2.5 g ai/ha
[15] = halauxifen-methyl alone 5 g ai/ha
[16] = halauxifen-methyl alone 10 g ai/ha

## O=C(O)c1nc(Cl)ccc1Cl [Clopyralid-olamine, 2-hydroxyethanaminium 3,6-dichloro-2-pyridinecarboxylate]
[1]; 50 g ai/ha alone, 20-22 d
  % Visual Injury Obs: 0%
[1]; 100 g ai/ha alone, 20-22 d
  % Visual Injury Obs: 0%
[1]; 200 g ai/ha alone, 20-22 d
  % Visual Injury Obs: 0%
[2]; 50 g ai/ha alone, 20-22 d
  % Visual Injury Obs: 0%
[2]; 100 g ai/ha alone, 20-22 d
  % Visual Injury Obs: 0%
[2]; 200 g ai/ha alone, 20-22 d
  % Visual Injury Obs: 0%
[3]; 50 g ai/ha alone, 20-22 d
  % Visual Injury Obs: 0%
[3]; 100 g ai/ha alone, 20-22 d
  % Visual Injury Obs: 0%
[3]; 200 g ai/ha alone, 20-22 d
  % Visual Injury Obs: 0%
[4]; [8]
  Mean % Visual Injury: 1%
[4]; [9]
  Mean % Visual Injury: 1%
[4]; [10]
  Mean % Visual Injury: 1%
[4]; 85DAA1, 120 g ae/ha alone
  Mean % Visual Growth Inhibition: 3.8%
[4]; [11]
  Mean % Visual Deformation: 23.8%
[4]; [12]
  Mean % Visual Deformation: 1.0%
[4]; [13]
  Mean % Visual Deformation: 1.0%
[5]; 50 g ai/ha alone, 20-22 d
  % Visual Injury Obs: 0%
[5]; 100 g ai/ha alone, 20-22 d
  % Visual Injury Obs: 0%
[5]; 200 g ai/ha alone, 20-22 d
  % Visual Injury Obs: 0%

## COC(=O)c1nc(-c2ccc(Cl)c(OC)c2F)cc(N)c1Cl [Halauxifen-methyl, methyl 4-amino-3-chloro-6-(4-chloro-2-fluoro-3-methoxyphenyl)-2-pyridineccarboxylate]
[1]; 2.5 g ai/ha alone, 20-22 d
  % Visual Injury Obs: 5%
[1]; 5 g ai/ha alone, 20-22 d
  % Visual Injury Obs: 6%
[1]; 10 g ai/ha alone, 20-22 d
  % Visual Injury Obs: 10%
[1]; halauxifen-methyl 2.5 g ai/ha
  % Visual Injury Obs: 5%
  Visual Injury Obs: 5%
[1]; halauxifen-methyl 5 g ai/ha
  % Visual Injury Obs: 6%
  Visual Injury Obs: 6%
[1]; halauxifen-methyl 10 g ai/ha
  % Visual Injury Obs: 10%
  Visual Injury Obs: 10%
[1]; [14]
  Percent (%) Visual Injury BRSRR Obs: 5%
[1]; [15]
  Percent (%) Visual Injury BRSRR Obs: 6%
[1]; [16]
  Percent (%) Visual Injury BRSRR Obs: 10%
[2]; 2.5 g ai/ha alone, 20-22 d
  % Visual Injury Obs: 6%
[2]; 5 g ai/ha alone, 20-22 d
  % Visual Injury Obs: 10%
[2]; 10 g ai/ha alone, 20-22 d
  % Visual Injury Obs: 16%
[2]; halauxifen-methyl 2.5 g ai/ha
  % Visual Injury Obs: 6%
  Visual Injury Obs: 6%
[2]; halauxifen-methyl 5 g ai/ha
  % Visual Injury Obs: 10%
  Visual Injury Obs: 10%
[2]; halauxifen-methyl 10 g ai/ha
  % Visual Injury Obs: 16%
  Visual Injury Obs: 16%
[2]; [14]
  Percent (%) Visual Injury BRSAG Obs: 6%
[2]; [15]
  Percent (%) Visual Injury BRSAG Obs: 10%
[2]; [16]
  Percent (%) Visual Injury BRSAG Obs: 16%
[3]; 2.5 g ai/ha alone, 20-22 d
  % Visual Injury Obs: 15%
[3]; 5 g ai/ha alone, 20-22 d
  % Visual Injury Obs: 20%
[3]; 10 g ai/ha alone, 20-22 d
  % Visual Injury Obs: 23%
[3]; halauxifen-methyl 2.5 g ai/ha
  % Visual Injury Obs: 15%
  Visual Injury Obs: 15%
[3]; halauxifen-methyl 5 g ai/ha
  % Visual Injury Obs: 20%
  Visual Injury Obs: 20%
[3]; halauxifen-methyl 10 g ai/ha
  % Visual Injury Obs: 23%
  Visual Injury Obs: 23%
[3]; [14]
  Percent (%) Visual Injury BRSNN-NEX Obs: 15%
[3]; [15]
  Percent (%) Visual Injury BRSNN-NEX Obs: 20%
[3]; [16]
  Percent (%) Visual Injury BRSNN-NEX Obs: 23%
[4]; [8]
  Mean % Visual Injury: 1%
[4]; [9]
  Mean % Visual Injury: 1%
[4]; [10]
  Mean % Visual Injury: 1%
[4]; 85DAA1, 5 g ae/ha alone
  Mean % Visual Growth Inhibition: 5.0%
[4]; [11]
  Mean % Visual Deformation: 0%
[4]; [12]
  Mean % Visual Deformation: 1%
[4]; [13]
  Mean % Visual Deformation: 1%
[6]; 22DAA1, 7.5 g ae/ha
  Mean % Visual Growth Inhibition: 25.0%
  Mean % Visual Injury: 32.5%
[6]; 28DAA1, 3.75 g ae/ha
  Mean % Visual Growth Inhibition: 15.0%
  Mean % Visual Injury: 10.0%
[6]; 28DAA1, 7.5 g ae/ha
  Mean % Visual Growth Inhibition: 22.5%
  Mean % Visual Injury: 27.5%
[6]; 56DAA1, 7.5 g ae/ha
  Mean % Visual Growth Inhibition: 23.8%
[5]; 2.5 g ai/ha alone, 20-22 d
  % Visual Injury Obs: 5%
[5]; 5 g ai/ha alone, 20-22 d
  % Visual Injury Obs: 5%
[5]; 10 g ai/ha alone, 20-22 d
  % Visual Injury Obs: 10%
[5]; halauxifen-methyl 2.5 g ai/ha
  % Visual Injury Obs: 5%
  Visual Injury Obs: 5%
[5]; halauxifen-methyl 5 g ai/ha
  % Visual Injury Obs: 5%
  Visual Injury Obs: 5%
[5]; halauxifen-methyl 10 g ai/ha
  % Visual Injury Obs: 10%
  Visual Injury Obs: 10%
[5]; [14]
  Percent (%) Visual Injury BRSNA Obs: 5%
[5]; [15]
  Percent (%) Visual Injury BRSNA Obs: 5%
[5]; [16]
  Percent (%) Visual Injury BRSNA Obs: 10%
[7]; 3DAA1, 15 g ae/ha
  Mean % Visual Injury: 14.4%
[7]; 7DAA1, 15 g ae/ha
  Mean % Visual Injury: 16.2%
[7]; 15DAA1, 15 g ae/ha
  Mean % Visual Injury: 16.2%
[7]; 28DAA1, 15 g ae/ha
  Mean % Visual Injury: 39.0%
